Several values for one entry are separate records, joined by “and”; a condition that tells them apart may be missing. Equal entries are not always repeated.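 Protocol summary: plate cells (96-well), add compound at 5 concentrations, incubate 48 h, interpolate endpoints linearly. At the GI50, growth is halved. TGI denotes the concentration required for complete inhibition of growth.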
Each compound was assayed on OVCAR-4 ovarian (assay: NCI-60 cell line screen, 48 h).
`CCn1c(-c2ccc(N=NNc3ccc(-c4n[nH]c(=S)n4CC)cc3)cc2)n[nH]c1=S` showed a TGI of 5.41 µM. With `CC(=O)C1=C(C)N(c2ccc(C)cc2)C2(O)C=CC(=O)C3C(=O)N(c4ccccc4)C(=O)C132` (centres undefined) the TGI was 41.2 µM. `COc1ccc2c(c1)[nH]c1c(/C=C/c3ccccc3)nccc12` was tested, and the TGI was over 100 µM. `Clc1cc2c(cc1Cl)CC(NCCN1CCCC1)CC2` (centres undefined) was tested, and the TGI was 35.9 µM. Compound `[N-]=[N+]=CC(=O)c1ccccc1C#CCCc1ccccc1` has a TGI of over 100 µM. In the case of `CCN(CC(=O)O)C(=O)c1cccnc1`, the TGI is reported as over 100 µM. Compound `NCCSC(c1ccccc1)c1ccccc1` has a TGI of 46.8 µM. In the case of `CCCCCCCCC/C=C/C=C/C(=O)NCC(=O)NC1C(O)C(O)C(Nc2ncnc3nc[nH]c23)OC1C(O)CO` (centres undefined), the GI50 is reported as 0.00022 µM and the TGI is reported as 0.0515 µM. In the case of `COc1nc(C#CC2(O)CCCCC2)nc(OC)n1`, the TGI is reported as 4.44 µM. `C[C@H](CCC(=O)O)[C@H]1CC[C@@]2(C)[C@@H]3C(=O)C[C@H]4C(C)(C)[C@@H](O)CC[C@]4(C)[C@H]3C(=O)C[C@]12C` showed a TGI of over 100 µM.

These compounds were tested on SF-295 CNS (assay: NCI-60 cell line screen, 48 h).
Work on `CCOC(=O)C1=NN(c2ccc(C)cc2)C2=CC(C)=NN(C)C(=S)N21` yielded a TGI of over 100 µM. Compound `O=C(c1cccs1)N(C(=S)OC12CC3CC(CC(C3)C1)C2)c1ccccc1` has a TGI of over 100 µM. `C(=N\NC1=NCCN1)/c1ccc(-c2cn3cc(/C=N/NC4=NCCN4)ccc3n2)cc1` gave a TGI of over 70.1 µM. `CC1CC[C@@]2(OC1)OC1C[C@H]3[C@@H]4CC=C5CC(OC6OC(CO)C(OC7OC(CO)C(O)C(OC8OCC(O)C(O)C8O)C7OC7OC(CO)C(O)C(O)C7O)C(O)C6O)CCC5(C)[C@H]4CCC3(C)C1[C@@H]2C` (some centres undefined) showed a TGI of 21.2 µM. `Nc1ccccc1S(=O)(=O)c1ccccc1` was tested, and the TGI was over 100 µM. For `Cc1c(N2C(=O)CS(=O)(=O)C2c2cccc(Oc3ccccc3)c2)c(=O)n(-c2ccccc2)n1C` (centres undefined), the TGI was over 100 µM. In the case of `COc1cc2c(ccc3c4cc(OC)c(OC)cc4c[n+](C)c23)cc1O`, the TGI is reported as 54.9 µM. `CNC(=O)OCc1c(CO)nc(SC)n1C` gave a TGI of over 100 µM. `CN(C)CC(CC1=C(CC(CN(C)C)N(C)C)CCC1)N(C)C` (centres undefined) gave a TGI of over 100 µM. Compound `CCC1CN(C(=O)c2ccccc2)C(Cc2c[nH]c3ccccc23)C(=O)C1CC(=O)OC` (centres undefined) has a TGI of over 100 µM. `CC12CC3OC(=O)C1COC14OC5(C2C1=O)C(O)(CCC1C4CC(O)C2(O)CC=CC(=O)C12C)C(=O)OC35C` (centres undefined) gave a TGI of over 100 µM. `O=c1cccccc1[O-].O=c1cccccc1[O-].[O]=[U+2]=[O]` gave a TGI of 41.5 µM. Compound `COc1ccc(C(=O)/C=C/c2cccc([N+](=O)[O-])c2)c(OC)c1` has a GI50 of 2.39 µM and a TGI of over 50 µM. `CCOC(=O)C(NC(=O)c1ccco1)(Nc1nc2ccc(OCC)cc2s1)C(F)(F)F` (centres undefined) gave a TGI of over 100 µM. Compound `CCC(C)C1=C(OC(C)=O)[N+]2([O-])Oc3ccc(-c4c(OC(C)=O)c(OC(C)=O)c(-c5ccc(OC(C)=O)cc5)c(OC(C)=O)c4OC(C)=O)cc3OC2(C(C)CC)C(=O)N1OC(C)=O` (centres undefined) has a TGI of 21.8 µM. For `O=C(O)C1C2CCC(O2)C1C(=O)Nc1cccc2cccnc12` (centres undefined), the TGI was over 100 µM. In the case of `COc1cccc2c1Cc1cc(-c3ccccc3)[n+](C)n1-2`, the TGI is reported as over 100 µM. `O=C(OCN1C(=O)C2C3C=CC(C2C1=O)C1C2C(=O)N(COC(=O)C4CCCN4)C(=O)C2C31)C1CCCN1` (centres undefined) gave a TGI of over 100 µM. `O=C(C[n+]1ccc2ccccc2c1)c1ccc2ccc3ccccc3c2c1` was tested, and the TGI was 16.4 µM. `NCCCCc1cc(O)c2c(c1O)C(=O)c1ccccc1C2=O` was tested, and the TGI was 28.6 µM. `Cc1ccccc1C(=O)N/N=C/c1ccc(Sc2nccn2C)c([N+](=O)[O-])c1` showed a TGI of over 100 µM. `CCn1c(-c2ccc(N=NNc3ccc(-c4n[nH]c(=S)n4CC)cc3)cc2)n[nH]c1=S` gave a TGI of 7.1 µM. For `CC(=O)C1=C(C)N(c2ccc(C)cc2)C2(O)C=CC(=O)C3C(=O)N(c4ccccc4)C(=O)C132` (centres undefined), the TGI was 43.7 µM. `COc1ccc2c(c1)[nH]c1c(/C=C/c3ccccc3)nccc12` showed a TGI of 24.2 µM. `Clc1cc2c(cc1Cl)CC(NCCN1CCCC1)CC2` (centres undefined) gave a TGI of 29.8 µM. Compound `[N-]=[N+]=CC(=O)c1ccccc1C#CCCc1ccccc1` has a TGI of over 100 µM. `CCN(CC(=O)O)C(=O)c1cccnc1` showed a TGI of over 100 µM. `NCCSC(c1ccccc1)c1ccccc1` was tested, and the TGI was 35.7 µM. `CCCCCCCCC/C=C/C=C/C(=O)NCC(=O)NC1C(O)C(O)C(Nc2ncnc3nc[nH]c23)OC1C(O)CO` (centres undefined) was tested, and the GI50 was 0.0441 µM and the TGI was 1.08 µM and 8.98 µM. With `COc1nc(C#CC2(O)CCCCC2)nc(OC)n1` the TGI was 60.4 µM. `C[C@H](CCC(=O)O)[C@H]1CC[C@@]2(C)[C@@H]3C(=O)C[C@H]4C(C)(C)[C@@H](O)CC[C@]4(C)[C@H]3C(=O)C[C@]12C` was tested, and the TGI was over 100 µM.

What follows are compounds tested on U251 CNS (assay: NCI-60 cell line screen, 48 h).
`CCOC(=O)C1=NN(c2ccc(C)cc2)C2=CC(C)=NN(C)C(=S)N21` was tested, and the TGI was over 100 µM. `O=C(c1cccs1)N(C(=S)OC12CC3CC(CC(C3)C1)C2)c1ccccc1` gave a TGI of over 100 µM. With `C(=N\NC1=NCCN1)/c1ccc(-c2cn3cc(/C=N/NC4=NCCN4)ccc3n2)cc1` the TGI was over 64.9 µM. Work on `CC1CC[C@@]2(OC1)OC1C[C@H]3[C@@H]4CC=C5CC(OC6OC(CO)C(OC7OC(CO)C(O)C(OC8OCC(O)C(O)C8O)C7OC7OC(CO)C(O)C(O)C7O)C(O)C6O)CCC5(C)[C@H]4CCC3(C)C1[C@@H]2C` (some centres undefined) yielded a TGI of 8.72 µM. Compound `Nc1ccccc1S(=O)(=O)c1ccccc1` has a TGI of over 100 µM. `Cc1c(N2C(=O)CS(=O)(=O)C2c2cccc(Oc3ccccc3)c2)c(=O)n(-c2ccccc2)n1C` (centres undefined) gave a TGI of over 100 µM. For `COc1cc2c(ccc3c4cc(OC)c(OC)cc4c[n+](C)c23)cc1O`, the TGI was 2.94 µM. `CNC(=O)OCc1c(CO)nc(SC)n1C` showed a TGI of over 100 µM. Work on `CN(C)CC(CC1=C(CC(CN(C)C)N(C)C)CCC1)N(C)C` (centres undefined) yielded a TGI of over 100 µM. `CCC1CN(C(=O)c2ccccc2)C(Cc2c[nH]c3ccccc23)C(=O)C1CC(=O)OC` (centres undefined) was tested, and the TGI was over 100 µM. Compound `CC12CC3OC(=O)C1COC14OC5(C2C1=O)C(O)(CCC1C4CC(O)C2(O)CC=CC(=O)C12C)C(=O)OC35C` (centres undefined) has a TGI of over 100 µM. `NC(=O)c1c(NC(=O)c2ccccn2)sc2c1CCC(=O)C2` showed a GI50 of 2.14 µM and a TGI of over 100 µM. `O=c1cccccc1[O-].O=c1cccccc1[O-].[O]=[U+2]=[O]` gave a GI50 of 25.9 µM and a TGI of 72 µM. In the case of `COc1ccc(C(=O)/C=C/c2cccc([N+](=O)[O-])c2)c(OC)c1`, the GI50 is reported as 0.881 µM and the TGI is reported as 1.72 µM. `CCOC(=O)C(NC(=O)c1ccco1)(Nc1nc2ccc(OCC)cc2s1)C(F)(F)F` (centres undefined) was tested, and the TGI was over 100 µM. `CCC(C)C1=C(OC(C)=O)[N+]2([O-])Oc3ccc(-c4c(OC(C)=O)c(OC(C)=O)c(-c5ccc(OC(C)=O)cc5)c(OC(C)=O)c4OC(C)=O)cc3OC2(C(C)CC)C(=O)N1OC(C)=O` (centres undefined) showed a TGI of over 50 µM. Compound `O=C(O)C1C2CCC(O2)C1C(=O)Nc1cccc2cccnc12` (centres undefined) has a TGI of over 100 µM. `COc1cccc2c1Cc1cc(-c3ccccc3)[n+](C)n1-2` showed a TGI of over 100 µM. Compound `O=C(OCN1C(=O)C2C3C=CC(C2C1=O)C1C2C(=O)N(COC(=O)C4CCCN4)C(=O)C2C31)C1CCCN1` (centres undefined) has a TGI of over 67.5 µM. `O=C(C[n+]1ccc2ccccc2c1)c1ccc2ccc3ccccc3c2c1` was tested, and the TGI was 14.6 µM. `NCCCCc1cc(O)c2c(c1O)C(=O)c1ccccc1C2=O` showed a TGI of over 43 µM. In the case of `Cc1ccccc1C(=O)N/N=C/c1ccc(Sc2nccn2C)c([N+](=O)[O-])c1`, the TGI is reported as over 100 µM. With `CC(=O)C1=C(C)N(c2ccc(C)cc2)C2(O)C=CC(=O)C3C(=O)N(c4ccccc4)C(=O)C132` (centres undefined) the TGI was 65.6 µM. Work on `COc1ccc2c(c1)[nH]c1c(/C=C/c3ccccc3)nccc12` yielded a TGI of 38.9 µM. Work on `Clc1cc2c(cc1Cl)CC(NCCN1CCCC1)CC2` (centres undefined) yielded a TGI of 31.1 µM. Work on `[N-]=[N+]=CC(=O)c1ccccc1C#CCCc1ccccc1` yielded a TGI of 88.5 µM. `CCN(CC(=O)O)C(=O)c1cccnc1` was tested, and the TGI was over 100 µM. Work on `NCCSC(c1ccccc1)c1ccccc1` yielded a TGI of 33.3 µM. `CCCCCCCCC/C=C/C=C/C(=O)NCC(=O)NC1C(O)C(O)C(Nc2ncnc3nc[nH]c23)OC1C(O)CO` (centres undefined) showed a GI50 of 0.00214 µM and a TGI of 0.0217 µM. `COc1nc(C#CC2(O)CCCCC2)nc(OC)n1` was tested, and the TGI was 26.4 µM. With `C[C@H](CCC(=O)O)[C@H]1CC[C@@]2(C)[C@@H]3C(=O)C[C@H]4C(C)(C)[C@@H](O)CC[C@]4(C)[C@H]3C(=O)C[C@]12C` the TGI was over 100 µM.

From PubChem BioAssay (NCI)
